Measurements reported in the NIST ThermoML archive (doi:10.1016/j.jct.2019.03.008).

Key:
[1] = Boiling temperature at pressure P; conditions: Liquid, DSC
[2] = Crystal; DTA

Oc1ccccc1O [1,2-benzenediol]
[1]
Conditions | Boiling temperature at pressure P [°C]
2.95 kPa | 139.1
3.93 kPa | 145.5
4.93 kPa | 150.7

Oc1cccc(O)c1 [1,3-benzenediol]
[1]
Conditions | Boiling temperature at pressure P [°C]
2.95 kPa | 171.6
3.93 kPa | 178.2
4.93 kPa | 183.7

CCCCCCc1ccc(O)cc1O [1,3-dihydroxy-4-hexylbenzene]
Conditions | Normal melting temperature [°C]
[2] | 67.0

[1]
Conditions | Boiling temperature at pressure P [°C]
1.95 kPa | 201.0
2.95 kPa | 211.0
3.87 kPa | 218.7
5.42 kPa | 227.1
7.89 kPa | 238
9.9 kPa | 244.6
19.83 kPa | 267
29.78 kPa | 281.4
49.68 kPa | 301.2
69.58 kPa | 315.0
79.52 kPa | 321.4
100.93 kPa | 332.4
198.33 kPa | 364.4
223.29 kPa | 371.5
250.21 kPa | 378

CCCc1c(O)cccc1O [2-propylresorcinol]
Conditions | Normal melting temperature [°C]
[2] | 104.8

[1]
Conditions | Boiling temperature at pressure P [°C]
9.92 kPa | 197.5
19.83 kPa | 218.2
29.79 kPa | 231.6
49.69 kPa | 250.2
69.61 kPa | 263.2
98.91 kPa | 278.0
198.31 kPa | 309.6
299.37 kPa | 332.2
400.46 kPa | 345.8

CCc1ccc(O)cc1O [4-ethylresorcinol]
Conditions | Normal melting temperature [°C]
[2] | 97.2

[1]
Conditions | Boiling temperature at pressure P [°C]
9.92 kPa | 207.4
19.87 kPa | 228.2
29.79 kPa | 241.4
49.73 kPa | 259.6
69.64 kPa | 272.6
98.43 kPa | 287.0
198.31 kPa | 318.6
299.37 kPa | 339.8
400.09 kPa | 356.2
